According to article PMC10502144, “Anti-methicillin-resistant Staphylococcus aureus activity and safety evaluation of 14-O-[(5-ethoxycarbonyl-4,6-dimethylpyrimidine-2-yl) thioacetyl] mutilin (EDT)” (Scientific Reports, 2023):
Values after ≈ are worked out from the molar mass of the structure shown. Where two headings read alike, the source gives them in different places.

How the values were obtained:
[1] = test system: clinical isolates of MRSA; test: MIC by broth serial-dilution against 48 clinical isolates of MRSA; assay type: cell-based, methicillin-resistant Staphylococcus aureus; conditions: range over 48 clinical isolates of MRSA
Method: The tests against 48 clinical isolates of MRSA from dairy farms in 4 different provinces in China[37] were conducted in triplicate, using broth serial-dilution method in 96-well plates according to CLSI reference methods. Briefly, EDT and tiamulin fumarate used as referent drug were dissolved in 25% dimethyl sulfoxide (DMSO) to a solution with concentration of 64 μg/mL. The obtained 100 μL solutions were then added into the first column of the 96-well plate, and diluted to the tenth well with serial twofold dilutions. The last two wells were used as positive controls. The 100 μL bacterial suspension was diluted in MHB to give a final organism density of to 10^5 ~ 10^6 colony-forming unit (CFU) per 1 mL and added to all the wells, followed by incubating at 37 °C for 24 h. […] The results were expressed as an average of the MICs obtained from three independent experiments.

MRSA-337371 = test: microbe, parasite or virus in culture; assay type: cell-based, methicillin-resistant Staphylococcus aureus; conditions: for MIC: Staphylococcus aureus, MRSA
Method: We performed resistance induction tests on EDT and tiamulin which was used as a referent drug. […] Finally, MRSA was cultured for 30 generations with the same procedure. At the 31st generation, drugs were removed until 40th generation and MICs were determined in each generation.

[2] = test system: GFP expression in S. aureus ATCC 29,213; test: Green fluorescent protein (GFP) inhibition assay; assay type: cell-based, Staphylococcus aureus; conditions: 1 and 4 μM, co-incubation 4 h, fluorescence microscopy
Method: The inhibition assay against GFP expression was performed according to our previous report[41] with minor modification. Plasmids carried erythromycin resistant genes were labeled with GFP and electrotransformed into S. aureus. After screenings using erythromycin, S. aureus strain expressing GFP was then obtained and grown to mid-logarithmic phase, followed by collecting centrifugally and re-suspending with PBS buffer. The obtained suspensions were co-incubated with EDT and tiamulin with the final concentrations of 1 and 4 μM, respectively, for 4 h at 37 °C. The cells were subsequently collected by centrifugation to perform imaging using fluorescence microscopy after re-suspending with PBS buffer.

[3] = Cytotoxicity assay (CCK-8), HepG2; assay type: cell-based; conditions: human, HepG2 cells
Method: Cytotoxicity of EDT and tiamulin was studied against human hepatocellular carcinoma cells (HepG2) and human embryonic kidney 293T (HEK293T) cells following a protocol as published in our earlier reports[41],[42]. Cells were counted and inoculated into 96-well plates with approximately10^5 cells density for incubating 24 h at 37 °C. […] The same procedure was repeated three times. The percentages of cell viability were calculated by the formula: Cell viability (%) = [Asample ‒ Anegative]/[Apositve ‒ Anegative] × 100%.

Compound: C=CC1(C)CC(OC(=O)CSc2nc(C)c(C(=O)OCC)c(C)n2)C2(C)C(C)CCC3(CCC(=O)C32)C(C)C1O (centres unmarked) [EDT, 14-O-[(5-ethoxycarbonyl-4,6-dimethylpyrimidine-2-yl)thioacetyl] mutilin]
- MIC values against 48 strains [1]: 0.0313 to 0.125 µg/mL
- increase of MIC (MRSA-337371; 30 generations under the subinhibitory concentration (1/4 MIC)): fourfold
- MIC (MRSA-337371; 24 h, read-out: MIC in the resistance development study, day 1): 0.0313 µg/mL (≈ 0.0546 µM)
- MIC (MRSA-337371; 48 h, read-out: MIC in the resistance development study, day 2): 0.0313 µg/mL (≈ 0.0546 µM)
- MIC (MRSA-337371; 72 h, read-out: MIC in the resistance development study, day 3): 0.0313 µg/mL (≈ 0.0546 µM)
- MIC (MRSA-337371; 96 h, read-out: MIC in the resistance development study, day 4): 0.0313 µg/mL (≈ 0.0546 µM)
- MIC (MRSA-337371; 120 h, read-out: MIC in the resistance development study, day 5): 0.0313 µg/mL (≈ 0.0546 µM)
- MIC (MRSA-337371; 144 h, read-out: MIC in the resistance development study, day 6): 0.0313 µg/mL (≈ 0.0546 µM)
- MIC (MRSA-337371; 168 h, read-out: MIC in the resistance development study, day 7): 0.0313 µg/mL (≈ 0.0546 µM)
- MIC (MRSA-337371; 192 h, read-out: MIC in the resistance development study, day 8): 0.0313 µg/mL (≈ 0.0546 µM)
- MIC (MRSA-337371; 216 h, read-out: MIC in the resistance development study, day 9): 0.0313 µg/mL (≈ 0.0546 µM)
- MIC (MRSA-337371; 240 h, read-out: MIC in the resistance development study, day 10): 0.0313 µg/mL (≈ 0.0546 µM)
- MIC (MRSA-337371; 264 h, read-out: MIC in the resistance development study, day 11): 0.0313 µg/mL (≈ 0.0546 µM)
- MIC (MRSA-337371; 288 h, read-out: MIC in the resistance development study, day 12): 0.0625 µg/mL (≈ 0.109 µM)
- MIC (MRSA-337371; 312 h, read-out: MIC in the resistance development study, day 13): 0.0625 µg/mL (≈ 0.109 µM)
- MIC (MRSA-337371; 336 h, read-out: MIC in the resistance development study, day 14): 0.0313 µg/mL (≈ 0.0546 µM)
- MIC (MRSA-337371; 360 h, read-out: MIC in the resistance development study, day 15): 0.0313 µg/mL (≈ 0.0546 µM)
- MIC (MRSA-337371; 384 h, read-out: MIC in the resistance development study, day 16): 0.0313 µg/mL (≈ 0.0546 µM)
- MIC (MRSA-337371; 408 h, read-out: MIC in the resistance development study, day 17): 0.0625 µg/mL (≈ 0.109 µM)
- MIC (MRSA-337371; 432 h, read-out: MIC in the resistance development study, day 18): 0.0625 µg/mL (≈ 0.109 µM)
- MIC (MRSA-337371; 456 h, read-out: MIC in the resistance development study, day 19): 0.0625 µg/mL (≈ 0.109 µM)
- MIC (MRSA-337371; 480 h, read-out: MIC in the resistance development study, day 20): 0.125 µg/mL (≈ 0.218 µM)
- MIC (MRSA-337371; 504 h, read-out: MIC in the resistance development study, day 21): 0.125 µg/mL (≈ 0.218 µM)
- MIC (MRSA-337371; 528 h, read-out: MIC in the resistance development study, day 22): 0.125 µg/mL (≈ 0.218 µM)
- MIC (MRSA-337371; 552 h, read-out: MIC in the resistance development study, day 23): 0.125 µg/mL (≈ 0.218 µM)
- MIC (MRSA-337371; 576 h, read-out: MIC in the resistance development study, day 24): 0.125 µg/mL (≈ 0.218 µM)
- MIC (MRSA-337371; 600 h, read-out: MIC in the resistance development study, day 25): 0.125 µg/mL (≈ 0.218 µM)
- MIC (MRSA-337371; 624 h, read-out: MIC in the resistance development study, day 26): 0.125 µg/mL (≈ 0.218 µM)
- MIC (MRSA-337371; 648 h, read-out: MIC in the resistance development study, day 27): 0.125 µg/mL (≈ 0.218 µM)
- MIC (MRSA-337371; 672 h, read-out: MIC in the resistance development study, day 28): 0.125 µg/mL (≈ 0.218 µM)
- MIC (MRSA-337371; 696 h, read-out: MIC in the resistance development study, day 29): 0.125 µg/mL (≈ 0.218 µM)
- MIC (MRSA-337371; MRSA-337371, MIC used to set 1×-8× MIC in the PAE test): 0.0313 µg/mL (≈ 0.0546 µM)
- MIC (MRSA-337371; read-out: MIC in the resistance development study, day 30): 0.125 µg/mL (≈ 0.218 µM)
- MIC (MRSA-337371; read-out: MIC in the resistance development study, day 31, drugs removed): 0.125 µg/mL (≈ 0.218 µM)
- MIC (MRSA-337371; read-out: MIC in the resistance development study, day 32, drugs removed): 0.125 µg/mL (≈ 0.218 µM)
- MIC (MRSA-337371; read-out: MIC in the resistance development study, day 33, drugs removed): 0.0625 µg/mL (≈ 0.109 µM)
- MIC (MRSA-337371; read-out: MIC in the resistance development study, day 34, drugs removed): 0.0625 µg/mL (≈ 0.109 µM)
- MIC (MRSA-337371; read-out: MIC in the resistance development study, day 35, drugs removed): 0.0313 µg/mL (≈ 0.0546 µM)
- MIC (MRSA-337371; read-out: MIC in the resistance development study, day 36, drugs removed): 0.0313 µg/mL (≈ 0.0546 µM)
- MIC (MRSA-337371; read-out: MIC in the resistance development study, day 37, drugs removed): 0.0313 µg/mL (≈ 0.0546 µM)
- MIC (MRSA-337371; read-out: MIC in the resistance development study, day 38, drugs removed): 0.0313 µg/mL (≈ 0.0546 µM)
- MIC (MRSA-337371; read-out: MIC in the resistance development study, day 39, drugs removed): 0.0313 µg/mL (≈ 0.0546 µM)
- MIC (MRSA-337371; read-out: MIC in the resistance development study, day 40, drugs removed): 0.0313 µg/mL (≈ 0.0546 µM)
- sensitivity of MRSA after removing drugs (MRSA-337371; after removing drugs and culturing for additional 10 generations): recovered the initial sensitivity
- increase in the MIC values (MRSA-337371; at 22 generations): fourfold
- inhibition of GFP expression (green fluorescence intensity) [2]: effectively inhibited the expression of GFP
- viability at 6 h, 100 µM ([3]; HepG2, 100 μM, read-out: cell viability): 99.7%
- CC50 at 6 h ([3]; HepG2, 200 μM converted to μg/mL): > 115 µg/mL
- viability at 6 h, 200 µM ([3]; HepG2, 200 μM, read-out: cell viability): 77.5%
- CC50 at 6 h ([3]; HepG2, deduced from Fig. 5): > 200 µM
